Each compound was assayed against T1, EZH2 within the PRC2 complex (Homo sapiens, UniProt Q15910) (assay: EZH2 methyltransferase scintillation proximity assay (SPA)). Details: Human PRC2 5 member complex (FLAG-EZH2, EED, SUZ12, RbAp48, AEBP2), 1 nM enzyme, biotinylated histone H3K27 peptide, 3H-SAM, 60 min at room temperature.
T1 construct: FLAG; made in house; host or cells: Sf9 cells
Assay type: biochemical
Method: Compounds contained herein were evaluated for their ability to inhibit the methyltransferase activity of EZH2 within the PRC2 complex. Human PRC2 complex was prepared by co-expressing each of the 5 member proteins (FLAG-EZH2, EED, SUZ12, RbAp48, AEBP2) in Sf9 cells followed by co-purification. Enzyme activity was measured in a scintillation proximity assay (SPA) where a tritiated methyl group is transferred from 3H-SAM to a lysine residue on a biotinylated, unmethylated peptide substrate derived from histone H3. The peptides were captured on streptavidin-coated SPA beads and the resulting signal was read on a ViewLux plate reader.
• 1. Prepare 10 mM stock of compounds from solid in 100% DMSO. • 2. Set up an 11-point serial dilution (1:4 dilution, top concentration 10 mM) in 100% DMSO for each test compound in a 384 well plate leaving columns 6 and 18 for DMSO controls. • 3. Dispense 10 nL of compound from the dilution plate into reaction plates (Corning, 384-well polystyrene NBS, Cat#3673).
Prepare the following solutions: • 1. 1× Base Buffer, 50 mM Tris-HCl, pH 8, 2 mM MgCl2: Per 1 L of base buffer, combine 1 M Tris-HCl, pH 8 (50 mL), 1 M MgCl2 (2 mL), and distilled water (948 mL). • 2. 1× Assay Buffer: Per 10 mL of 1× Assay Buffer, combine 1× Base Buffer (9.96 mL), 1 M DTT (40 uL), and 10% Tween-20 (1 uL) to provide a final concentration of 50 mM Tris-HCl, pH 8, 2 mM MgCl2, 4 mM DTT, 0.001% Tween-20. • 3. 2× Enzyme Solution: Per 10 mL of 2× Enzyme Solution, combine 1× Assay Buffer (9.99 mL) and 3.24 uM EZH2 5 member complex (6.17 uL) to provide a final enzyme concentration of 1 nM. • 4. SPA Bead Solution: Per 1 mL of SPA Bead Solution, combine Streptavidin coated SPA beads (PerkinElmer, Cat# RPNQ0261, 40 mg) and 1× Assay Buffer (1 mL) to provide a working concentration of 40 mg/mL. • 5. 2× Substrate Solution: Per 10 mL of 2× Substrate Solution, combine 40 mg/mL SPA Bead Solution (375 uL), 1 mM biotinylated histone H3K27 peptide (200 uL), 12.5 uM 3H-SAM (240 uL; 1 mCi/mL), 1 mM cold SAM (57 uL), and 1× Assay Buffer (9.13 mL) to provide a final concentration of 0.75 mg/mL SPA Bead Solution, 10 uM biotinylated histone H3K27 peptide, 0.15 uM 3H-SAM (˜12 uCi/mL 3H-SAM), and 2.85 uM cold SAM. • 6. 2.67× Quench Solution: Per 10 mL of 2.67× Quench Solution, combine 1× Assay Buffer (9.73 mL) and 10 mM cold SAM (267 uL) to provide a final concentration of 100 uM cold SAM.
• 1. Stamp 10 nL/well of 1000× Compound to test wells (as noted above). • 2. Stamp 10 nL/well of 100% DMSO to columns 6 & 18 (high and low controls, respectively).
• 1. Dispense 5 uL/well of 1× Assay Buffer to column 18 (low control reactions). • 2. Dispense 5 uL/well of 2× Substrate Solution to columns 1-24 (note: substrate solution should be mixed to ensure homogeneous bead suspension before dispensing into matrix reservoir). • 3. Dispense 5 uL/well of 2× Enzyme Solution to columns 1-17, 19-24. • 4. Incubate the reaction for 60 min at room temperature.
• 1. Dispense 6 uL/well of the 2.67× Quench Solution to columns 1-24. • 2. Seal assay plates and spin for ˜1 min at 500 rpm. • 3. Dark adapt plates in the ViewLux instrument for 15-60 min.
• 1. Read the assay plates on the Viewlux Plate Reader utilizing the 613 nm emission filter or clear filter (300 s exposure). Reagent addition can be done manually or with automated liquid handler.
Percent inhibition was calculated relative to the DMSO control for each compound concentration and the resulting values were fit using standard IC50 fitting parameters within the ABASE data fitting software package.
The IC50 values of <10 nM indicate that the activity of compound was approaching the limit of detection in the assay. Repeating the assay run(s) may result in somewhat different IC50 values.

T1 sequence (Q15910 whole entry): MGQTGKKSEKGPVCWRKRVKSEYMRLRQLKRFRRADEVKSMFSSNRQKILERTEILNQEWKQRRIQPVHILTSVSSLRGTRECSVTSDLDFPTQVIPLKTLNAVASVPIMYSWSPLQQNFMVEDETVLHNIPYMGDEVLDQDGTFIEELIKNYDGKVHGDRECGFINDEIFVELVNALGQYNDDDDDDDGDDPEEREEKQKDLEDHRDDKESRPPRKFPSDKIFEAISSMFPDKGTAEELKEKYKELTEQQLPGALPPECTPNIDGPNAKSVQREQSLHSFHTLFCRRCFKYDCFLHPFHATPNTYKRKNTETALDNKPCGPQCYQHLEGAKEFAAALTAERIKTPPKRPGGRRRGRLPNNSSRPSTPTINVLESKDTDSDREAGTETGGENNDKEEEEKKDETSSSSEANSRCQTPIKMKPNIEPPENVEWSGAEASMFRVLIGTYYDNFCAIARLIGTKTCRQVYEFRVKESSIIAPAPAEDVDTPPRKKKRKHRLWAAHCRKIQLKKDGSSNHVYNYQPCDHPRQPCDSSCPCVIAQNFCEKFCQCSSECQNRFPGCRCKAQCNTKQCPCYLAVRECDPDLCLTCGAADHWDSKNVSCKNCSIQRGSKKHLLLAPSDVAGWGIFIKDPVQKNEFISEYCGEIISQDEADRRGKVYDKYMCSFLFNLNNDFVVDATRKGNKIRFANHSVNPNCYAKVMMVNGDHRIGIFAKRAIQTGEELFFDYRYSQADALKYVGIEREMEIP
T1 sequence (O75530 whole entry partner): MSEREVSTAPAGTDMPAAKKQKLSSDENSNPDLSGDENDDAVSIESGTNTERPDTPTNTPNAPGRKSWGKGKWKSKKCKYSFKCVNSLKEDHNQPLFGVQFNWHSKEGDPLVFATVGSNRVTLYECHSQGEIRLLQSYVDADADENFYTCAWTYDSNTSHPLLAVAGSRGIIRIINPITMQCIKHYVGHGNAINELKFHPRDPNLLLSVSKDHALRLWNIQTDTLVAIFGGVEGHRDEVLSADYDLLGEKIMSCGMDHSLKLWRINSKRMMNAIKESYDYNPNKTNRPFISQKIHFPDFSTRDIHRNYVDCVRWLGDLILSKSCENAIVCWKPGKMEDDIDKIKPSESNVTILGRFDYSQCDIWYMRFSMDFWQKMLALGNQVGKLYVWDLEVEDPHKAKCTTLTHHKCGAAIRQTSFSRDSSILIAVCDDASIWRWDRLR
T1 sequence (Q15022 whole entry partner): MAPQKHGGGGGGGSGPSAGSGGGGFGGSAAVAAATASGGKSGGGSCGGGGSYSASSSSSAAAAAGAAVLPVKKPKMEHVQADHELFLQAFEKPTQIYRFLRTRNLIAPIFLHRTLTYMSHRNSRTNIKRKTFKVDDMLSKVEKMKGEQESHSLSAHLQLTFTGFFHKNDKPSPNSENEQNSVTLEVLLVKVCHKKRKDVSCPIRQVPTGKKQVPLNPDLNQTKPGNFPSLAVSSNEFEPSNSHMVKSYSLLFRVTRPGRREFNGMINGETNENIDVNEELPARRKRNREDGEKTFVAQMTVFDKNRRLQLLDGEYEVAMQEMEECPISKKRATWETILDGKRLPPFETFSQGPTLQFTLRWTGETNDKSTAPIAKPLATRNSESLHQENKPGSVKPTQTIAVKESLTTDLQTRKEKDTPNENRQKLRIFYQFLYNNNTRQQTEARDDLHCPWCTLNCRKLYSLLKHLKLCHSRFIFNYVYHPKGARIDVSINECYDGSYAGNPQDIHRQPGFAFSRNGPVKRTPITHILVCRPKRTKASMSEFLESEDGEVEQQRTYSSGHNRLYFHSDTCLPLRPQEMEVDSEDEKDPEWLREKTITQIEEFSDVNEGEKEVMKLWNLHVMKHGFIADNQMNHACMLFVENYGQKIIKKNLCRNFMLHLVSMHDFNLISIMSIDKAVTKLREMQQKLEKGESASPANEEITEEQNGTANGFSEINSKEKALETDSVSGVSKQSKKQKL
T1 sequence (Q09028 whole entry partner): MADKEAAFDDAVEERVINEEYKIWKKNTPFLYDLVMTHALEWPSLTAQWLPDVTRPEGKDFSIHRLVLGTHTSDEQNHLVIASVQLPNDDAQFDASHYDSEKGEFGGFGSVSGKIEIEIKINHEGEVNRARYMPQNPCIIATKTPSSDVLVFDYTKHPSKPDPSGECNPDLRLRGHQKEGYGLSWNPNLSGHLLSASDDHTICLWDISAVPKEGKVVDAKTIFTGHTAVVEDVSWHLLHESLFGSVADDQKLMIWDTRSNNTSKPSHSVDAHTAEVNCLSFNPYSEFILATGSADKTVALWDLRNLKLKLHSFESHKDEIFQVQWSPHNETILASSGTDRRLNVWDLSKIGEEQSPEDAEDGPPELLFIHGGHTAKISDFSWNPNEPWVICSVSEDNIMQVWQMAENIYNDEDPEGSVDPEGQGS
T1 sequence (Q6ZN18 whole entry partner): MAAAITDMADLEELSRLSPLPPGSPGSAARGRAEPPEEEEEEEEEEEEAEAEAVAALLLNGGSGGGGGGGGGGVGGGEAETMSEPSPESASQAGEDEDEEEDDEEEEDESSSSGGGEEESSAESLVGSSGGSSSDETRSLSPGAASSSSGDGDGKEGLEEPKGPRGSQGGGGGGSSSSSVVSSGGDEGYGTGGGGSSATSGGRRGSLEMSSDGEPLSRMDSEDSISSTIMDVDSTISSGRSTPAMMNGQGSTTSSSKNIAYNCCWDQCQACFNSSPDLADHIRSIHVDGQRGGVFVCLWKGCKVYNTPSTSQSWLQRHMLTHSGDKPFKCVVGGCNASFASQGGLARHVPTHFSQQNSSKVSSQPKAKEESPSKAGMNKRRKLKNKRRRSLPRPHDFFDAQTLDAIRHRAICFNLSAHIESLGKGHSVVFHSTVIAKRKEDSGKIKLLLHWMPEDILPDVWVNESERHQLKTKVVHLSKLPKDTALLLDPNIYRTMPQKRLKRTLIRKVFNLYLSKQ

SMILES | IC50 [nM]
CC[C@@H](c1scc(C(=O)NCc2c(C)cc(C)[nH]c2=O)c1C)C1CCN(CC(F)F)CC1 [Example 21, (R)-5-(1-(1-(2,2-Difluoroethyl)piperidin-4-yl)propyl)-N-((4,6-dimethyl-2-oxo-1,2-dihydropyridin-3-yl)methyl)-4-methylthiophene-3-carboxamide] | ≤ 10
Cc1cc(C)c(CNC(=O)c2csc([C@H](C)C3CCN(CC(F)F)CC3)c2C)c(=O)[nH]1 [Example 22, (R)-5-(1-(1-(2,2-Difluoroethyl)piperidin-4-yl)ethyl)-N-((4,6-dimethyl-2-oxo-1,2-dihydropyridin-3-yl)methyl)-4-methylthiophene-3-carboxamide] | ≤ 10
Cc1cc(C)c(CNC(=O)c2csc([C@H](C)C3CCN(CC(C)(F)F)CC3)c2C)c(=O)[nH]1 [Example 23, (R)-5-(1-(1-(2,2-Difluoropropyl)piperidin-4-yl)ethyl)-N-((4,6-dimethyl-2-oxo-1,2-dihydropyridin-3-yl)methyl)-4-methylthiophene-3-carboxamide] | ≤ 10
